Common to all, as to assay type: functional, cell-based
One experiment relates to HeLa. The experiment in a line: Antiproliferative activity against human HeLa cells after 48 hrs by sulforhodamine B assay. (In SRB staining, fixed cells bind dye roughly in proportion to their protein.)
Another experiment concerns HepG2. The experiment in a line: Antiproliferative activity against human HepG2 cells after 48 hrs by sulforhodamine B assay. The following applies: HepG2, 48 h.
The next experiment deals with A549. The experiment in a line: Antiproliferative activity against human A549 cells after 48 hrs by sulforhodamine B assay. The following applies: A549, 48 h.
The next experiment relates to MCF7. The experiment in a line: Antiproliferative activity against human MCF7 cells after 48 hrs by sulforhodamine B assay. Particulars: MCF7, 48 h.

pIC50: −log10 of the molar value.

Usually pIC50 stands for −log10 of the IC50, conventionally taken in molar units. The low end stands for a large IC50, the high end for a small IC50.

As to `COc1cc(Nc2nc(C3=CCN(C(=O)N4CCN(C)CC4)CC3)nc(N3CCOCC3)n2)cc(OC)c1OC`, the negative-log IC50 (pIC50) in the experiment on HeLa was 4.40; in the experiment on HepG2, 4.46; in the experiment on A549 it was 4.46; with MCF7, 4.39.

With `COc1cc(Nc2nc(C3=CCN(C(=O)N4CCN(c5ccc(C)cc5)CC4)CC3)nc(N3CCOCC3)n2)cc(OC)c1OC`, the pIC50 in the experiment on HeLa was 4.40; in the experiment with HepG2, 4.40; in the experiment on A549, 4.53; in the experiment with MCF7 it was 4.31.

In the case of `COc1cc(Nc2nc(C3=CCN(C(=O)c4ccncc4)CC3)nc(N3CCOCC3)n2)cc(OC)c1OC`, the negative logarithm of the IC50 (pIC50) with HeLa is 4.30; in the experiment on HepG2, 4.40; in the experiment with A549, 4.31; with MCF7, 4.49.

For the compound `COc1cc(Nc2nc(C3=CCN(C(=O)c4ccc(Br)cc4)CC3)nc(N3CCOCC3)n2)cc(OC)c1OC`, the pIC50 in the experiment on HeLa is 4.39; in the experiment with HepG2, 4.45; with A549, 4.47; in the experiment with MCF7, 4.40.

As for `COc1cc(Nc2nc(C3=CCN(C(=O)Nc4ccc(Cl)cc4)CC3)nc(N3CCOCC3)n2)cc(OC)c1OC`, the pIC50 in the experiment with HeLa was 4.51; in the experiment on HepG2 it was 4.46; in the experiment on A549 it was 4.44; in the experiment on MCF7, 4.54.

For `COc1cc(Nc2nc(C3=CCN(S(=O)(=O)c4ccc(Cl)cc4)CC3)nc(N3CCOCC3)n2)cc(OC)c1OC`, the negative-log IC50 (pIC50) with HeLa was 4.29; in the experiment with HepG2 it was 4.31; in the experiment on A549 it was 4.39; in the experiment on MCF7 it was 4.51.

Consider `COc1cc(Nc2nc(C3=CCN(S(=O)(=O)c4ccccc4[N+](=O)[O-])CC3)nc(N3CCOCC3)n2)cc(OC)c1OC`, for which the negative logarithm of the IC50 (pIC50) is 4.49 in the experiment with HeLa, 4.29 with HepG2, 4.47 in the experiment with A549 and 4.30 with MCF7.

For `COc1cc(Nc2nc(C3=CCN(C(=O)N4CCCC4)CC3)nc(N3CCOCC3)n2)cc(OC)c1OC`, the negative logarithm of the IC50 (pIC50) in the experiment on HeLa was 4.53; in the experiment on HepG2, 4.41; with A549 it was 4.36; with MCF7, 4.47.

On to `COc1cc(Nc2nc(C3=CCN(C(=O)C(F)(F)F)CC3)nc(N3CCOCC3)n2)cc(OC)c1OC`, for which the pIC50 in the experiment with HeLa was 4.37; in the experiment on HepG2 it was 4.30; in the experiment on A549, 4.54; in the experiment with MCF7, 4.32.

`COc1cc(Nc2nc(C3=CCN(C(=O)Nc4ccncc4)CC3)nc(N3CCOCC3)n2)cc(OC)c1OC`: the negative-log IC50 (pIC50) in the experiment on HeLa was 4.47; in the experiment on HepG2, 4.30; with A549, 4.49; with MCF7, 4.41.

On to `COc1cc(Nc2nc(C3=CCN(C(=O)c4ccc(Cl)cc4)CC3)nc(N3CCOCC3)n2)cc(OC)c1OC`, for which the pIC50 in the experiment on HeLa is 4.46; in the experiment with HepG2, 4.39; with A549, 4.36; in the experiment on MCF7 it was 4.42.

In the case of `COc1cc(Nc2nc(C3=CCN(S(=O)(=O)c4ccc(C(C)=O)cc4)CC3)nc(N3CCOCC3)n2)cc(OC)c1OC`, the pIC50 in the experiment on HeLa is 4.35; in the experiment on HepG2, 4.44; in the experiment on A549, 4.49; with MCF7, 4.49.

With `COc1cc(Nc2nc(C3=CCN(C(=O)CC#N)CC3)nc(N3CCOCC3)n2)cc(OC)c1OC`, the negative logarithm of the IC50 (pIC50) in the experiment on HeLa was 4.47; in the experiment on HepG2, 4.53; in the experiment with A549 it was 4.38; with MCF7, 4.39.

For `COc1cc(Nc2nc(C3=CCN(C(=O)c4cccnc4Cl)CC3)nc(N3CCOCC3)n2)cc(OC)c1OC`, the negative-log IC50 (pIC50) in the experiment on HeLa was 4.39; with HepG2, 4.35; in the experiment with A549, 4.37; in the experiment on MCF7, 4.52.

Turning to `COc1ccc(/C=C\c2cc(OC)c(OC)c(OC)c2)cc1O` [COMBRETASTATIN A4], the pIC50 in the experiment with HeLa is 5.24; in the experiment with HepG2, 5.37; in the experiment with A549 it was 5.28; in the experiment with MCF7 it was 5.38.

As to `COc1cc(Nc2nc(C3=CCN(C(=O)N4CCOCC4)CC3)nc(N3CCOCC3)n2)cc(OC)c1OC`, the pIC50 with HeLa was 4.34; in the experiment on HepG2, 4.54; in the experiment on A549 it was 4.49; in the experiment on MCF7, 4.42.

These data come from ChEMBL document CHEMBL4052738, “Design and synthesis of 4-morpholino-6-(1,2,3,6-tetrahydropyridin-4-yl)-N-(3,4,5-trimethoxyphenyl)-1,3,5-triazin-2-amine analogues as tubulin polymerization inhibitors” (Bioorg Med Chem Lett, 2017).
